Data as given in PubChem BioAssay (NCI).
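Grown in 96-well plates, cells were treated for 48 hours with each compound at five concentrations. Insufficient inhibition: endpoint recorded as highest concentration tested. TGI marks complete inhibition of growth.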

Legend:
Assay in all cases: NCI anticancer screen, dose series, 48 h
786-0 renal = test system: 786-0 renal
A498 renal = test system: A498 renal
A549 NSCLC = test system: A549 NSCLC
ACHN renal = test system: ACHN renal
CAKI-1 renal = test system: CAKI-1 renal
CCRF-CEM leukemia = test system: CCRF-CEM leukemia
COLO 205 colon = test system: COLO 205 colon
DLD-1 colon = test system: DLD-1 colon
DMS 273 small cell lung = test system: DMS 273 small cell lung
EKVX NSCLC = test system: EKVX NSCLC
HCC-2998 colon = test system: HCC-2998 colon
HCT-116 colon = test system: HCT-116 colon
HCT-15 colon = test system: HCT-15 colon
HL-60(TB) leukemia = test system: HL-60(TB) leukemia
HOP-18 NSCLC = test system: HOP-18 NSCLC
HOP-62 NSCLC = test system: HOP-62 NSCLC
HOP-92 NSCLC = test system: HOP-92 NSCLC
HT29 colon = test system: HT29 colon
IGROV1 ovarian = test system: IGROV1 ovarian
KM12 colon = test system: KM12 colon
KM20L2 colon = test system: KM20L2 colon
LOX IMVI melanoma = test system: LOX IMVI melanoma
LXFL 529 NSCLC = test system: LXFL 529 NSCLC
M14 melanoma = test system: M14 melanoma
M19-MEL melanoma = test system: M19-MEL melanoma
MALME-3M melanoma = test system: MALME-3M melanoma
MOLT-4 leukemia = test system: MOLT-4 leukemia
NCI-H226 lung = test system: NCI-H226 lung
NCI-H460 lung = test system: NCI-H460 lung
NCI-H522 lung = test system: NCI-H522 lung
OVCAR-3 ovarian = test system: OVCAR-3 ovarian
OVCAR-4 ovarian = test system: OVCAR-4 ovarian
OVCAR-5 ovarian = test system: OVCAR-5 ovarian
OVCAR-8 ovarian = test system: OVCAR-8 ovarian
RPMI-8226 leukemia = test system: RPMI-8226 leukemia
RXF 393 renal = test system: RXF 393 renal
SF-268 CNS = test system: SF-268 CNS
SF-295 CNS = test system: SF-295 CNS
SF-539 CNS = test system: SF-539 CNS
SK-MEL-28 melanoma = test system: SK-MEL-28 melanoma
SK-MEL-5 melanoma = test system: SK-MEL-5 melanoma
SK-OV-3 ovarian = test system: SK-OV-3 ovarian
SN12C renal = test system: SN12C renal
SNB-19 CNS = test system: SNB-19 CNS
SNB-75 CNS = test system: SNB-75 CNS
SNB-78 CNS = test system: SNB-78 CNS
SR leukemia = test system: SR leukemia
SW-620 colon = test system: SW-620 colon
TK-10 renal = test system: TK-10 renal
U251 CNS = test system: U251 CNS
UACC-257 melanoma = test system: UACC-257 melanoma
UACC-62 melanoma = test system: UACC-62 melanoma
UO-31 renal = test system: UO-31 renal
K-562 leukemia = test system: K-562 leukemia
NCI-H23 lung = test system: NCI-H23 lung

## C[C@]12CCC(=O)C(O)=C1CCC2=O
786-0 renal
  TGI: > 100 µM
A498 renal
  TGI: > 100 µM
A549 NSCLC
  TGI: > 100 µM
ACHN renal
  TGI: > 100 µM
CAKI-1 renal
  TGI: > 100 µM
CCRF-CEM leukemia
  TGI: > 100 µM
COLO 205 colon
  TGI: > 100 µM
DLD-1 colon
  TGI: > 100 µM
DMS 273 small cell lung
  TGI: > 100 µM
EKVX NSCLC
  TGI: > 100 µM
HCC-2998 colon
  TGI: > 100 µM
HCT-116 colon
  TGI: > 100 µM
HCT-15 colon
  TGI: > 100 µM
HL-60(TB) leukemia
  TGI: > 100 µM
HOP-18 NSCLC
  TGI: > 100 µM
HOP-62 NSCLC
  TGI: > 100 µM
HOP-92 NSCLC
  TGI: > 100 µM
HT29 colon
  TGI: > 100 µM
IGROV1 ovarian
  TGI: > 100 µM
KM12 colon
  TGI: > 100 µM
KM20L2 colon
  TGI: > 100 µM
LOX IMVI melanoma
  TGI: > 100 µM
LXFL 529 NSCLC
  TGI: > 100 µM
M14 melanoma
  TGI: > 100 µM
M19-MEL melanoma
  TGI: > 100 µM
MALME-3M melanoma
  TGI: > 100 µM
MOLT-4 leukemia
  TGI: > 100 µM
NCI-H226 lung
  TGI: > 100 µM
NCI-H460 lung
  TGI: > 100 µM
NCI-H522 lung
  TGI: > 100 µM
OVCAR-3 ovarian
  TGI: > 100 µM
OVCAR-4 ovarian
  TGI: > 100 µM
OVCAR-5 ovarian
  TGI: > 100 µM
OVCAR-8 ovarian
  TGI: > 100 µM
RPMI-8226 leukemia
  TGI: > 100 µM
RXF 393 renal
  TGI: > 100 µM
SF-268 CNS
  TGI: > 100 µM
SF-295 CNS
  TGI: > 100 µM
SF-539 CNS
  TGI: > 100 µM
SK-MEL-28 melanoma
  TGI: > 100 µM
SK-MEL-5 melanoma
  TGI: > 100 µM
SK-OV-3 ovarian
  TGI: > 100 µM
SN12C renal
  TGI: > 100 µM
SNB-19 CNS
  TGI: > 100 µM
SNB-75 CNS
  TGI: > 100 µM
SNB-78 CNS
  TGI: > 100 µM
SR leukemia
  TGI: > 100 µM
SW-620 colon
  TGI: > 100 µM
TK-10 renal
  TGI: > 100 µM
U251 CNS
  TGI: > 100 µM
UACC-257 melanoma
  TGI: > 100 µM
UACC-62 melanoma
  TGI: > 100 µM
UO-31 renal
  TGI: > 100 µM

## CN(C)CCNC(=O)C1COc2cc(-c3cc(=O)c4ccccc4o3)ccc2O1 (stereo unspecified)
786-0 renal
  TGI: 36.3 µM
A498 renal
  TGI: 33.7 µM
A549 NSCLC
  TGI: 35.5 µM
ACHN renal
  TGI: 33.1 µM
CAKI-1 renal
  TGI: 38.3 µM
CCRF-CEM leukemia
  TGI: > 100 µM
COLO 205 colon
  TGI: 31.7 µM
DLD-1 colon
  TGI: > 100 µM
DMS 273 small cell lung
  TGI: 36.3 µM
EKVX NSCLC
  TGI: > 100 µM
HCC-2998 colon
  TGI: > 100 µM
HCT-116 colon
  TGI: 29.6 µM
HCT-15 colon
  TGI: > 100 µM
HL-60(TB) leukemia
  TGI: 58.9 µM
HOP-18 NSCLC
  TGI: 56 µM
HOP-62 NSCLC
  TGI: > 100 µM
HOP-92 NSCLC
  TGI: > 100 µM
HT29 colon
  TGI: 34.6 µM
IGROV1 ovarian
  TGI: 48.3 µM
K-562 leukemia
  TGI: > 100 µM
KM20L2 colon
  TGI: 56.5 µM
LOX IMVI melanoma
  TGI: 38.3 µM
M14 melanoma
  TGI: 32 µM
M19-MEL melanoma
  TGI: > 100 µM
MALME-3M melanoma
  TGI: 36.2 µM
MOLT-4 leukemia
  TGI: 40.7 µM
NCI-H226 lung
  TGI: 49 µM
NCI-H23 lung
  TGI: > 100 µM
NCI-H460 lung
  TGI: > 100 µM
NCI-H522 lung
  TGI: 31 µM
OVCAR-3 ovarian
  TGI: 43.7 µM
OVCAR-4 ovarian
  TGI: 33.2 µM
OVCAR-5 ovarian
  TGI: > 100 µM
OVCAR-8 ovarian
  TGI: 70.1 µM
RPMI-8226 leukemia
  TGI: 85.1 µM
RXF 393 renal
  TGI: 38.8 µM
SF-268 CNS
  TGI: 50.9 µM
SF-295 CNS
  TGI: 93.6 µM
SF-539 CNS
  TGI: 32.9 µM
SK-MEL-28 melanoma
  TGI: 36 µM
SK-MEL-5 melanoma
  TGI: 28.8 µM
SK-OV-3 ovarian
  TGI: 53.8 µM
SN12C renal
  TGI: 78.8 µM
SNB-19 CNS
  TGI: 57.8 µM
SNB-75 CNS
  TGI: 43.1 µM
SNB-78 CNS
  TGI: 57.8 µM
SR leukemia
  TGI: 39.5 µM
SW-620 colon
  TGI: 44.5 µM
TK-10 renal
  TGI: 75.9 µM
U251 CNS
  TGI: 40.3 µM
UACC-257 melanoma
  TGI: 34.7 µM
UACC-62 melanoma
  TGI: 34.9 µM
UO-31 renal
  TGI: > 100 µM
